# Laboratory results reported in ChEMBL document CHEMBL1146649, “New highly active taxoids from 9 beta-dihydrobaccatin-9,10-acetals. Part 5” (2004).
# Legend:
# B16 [1] = test: Effective dose of intravenously administered compound against B16 melanoma BL6 cells implanted into mice; type: functional; conditions: Mus musculus, B16, iv
# B16 [2] = test: Effective dose of perorally administered compound against B16 melanoma BL6 cells implanted into mice; type: functional; conditions: Mus musculus
# PC-6 [3] = test: Concentration that inhibited the growth of PC-6/VCR29-9 cells by 50% at 72 hr continuous exposure; type: functional; conditions: Homo sapiens, PC-6, 72 h
# PC-12 = test: Concentration required to inhibit human PC-12 cell line growth by 50% at 72 hr continuous exposure; type: functional; conditions: PC-12, 72 h
# P388 = test: Concentration required to inhibit mouse P388 cell line growth by 50% at 72 hr continuous exposure; type: functional; conditions: P388, 72 h
# PC-6 [4] = test: Concentration required to inhibit human PC-6 cell line growth by 50% at 72 hr continuous exposure; type: functional; conditions: PC-6, 72 h
# PC-6 [5] = test: Concentration required to inhibit human PC-6/VP1-1 cell line growth by 50% at 72 hr exposure; type: functional; conditions: PC-6, 72 h
# PC-6 [6] = test: Concentration required to inhibit human PC-6/VCR29-9 cell line growth by 50% at 72 hr exposure; type: functional; conditions: PC-6, 72 h
# PC-6 [7] = test: Concentration required to inhibit human PC-6/VCR29-9 cell line growth by 50% at 72 hr of exposure; type: functional; conditions: PC-6, 72 h
# Mus musculus [8] = test: Number of mice died at 26.7 mg/kg of intravenous dose of compound among the total 6 mice tested; type: functional
# Mus musculus [9] = test: Number of mice died at 26.7 mg/kg of peroral dose of compound among the total 6 mice tested; type: functional; conditions: route oral
# Mus musculus [10] = test: Antitumor activity of 7.9 mg/kg of perorally administered compound against B16 melanoma BL6 cells implanted into mice, value reported is percent compared to control; type: functional; conditions: route oral
# Mus musculus [11] = test: Number of mice died at 11.9 mg/kg of intravenous dose, among the total 6 mice tested; type: functional
# Mus musculus [12] = test: Antitumor activity of 7.9 mg/kg of intravenously administered compound against B16 melanoma BL6 cells implanted into mice, value reported is percent compared to control; type: functional; conditions: route intravenous
# Mus musculus [13] = test: Effective dose of perorally administered compound against B16 melanoma BL6 cells implanted into mice; range is 7.9-17.8; type: functional; conditions: B16, po
# Mus musculus [14] = test: Maximum rate of body weight loss after intravenous administration of 7.9 mg/kg of compound in mice; <0 indicates no weight loss; type: functional
# Mus musculus [15] = test: Maximum rate of body weight loss after intravenous administration of 11.9 mg/kg of compound in mice; type: functional
# Mus musculus [16] = test: Antitumor activity of 26.7 mg/kg of perorally administered compound against B16 melanoma BL6 cells implanted into mice, value reported is percent compared to control; type: functional; conditions: route oral
# Mus musculus [17] = test: Maximum rate of body weight loss after peroral administration of 26.7 mg/kg of compound in mice; type: functional; conditions: route oral
# B16 [18] = test: Antitumor activity of 11.9 mg/kg of perorally administered compound against B16 melanoma BL6 cells implanted into mice, value reported is percent compared to control; type: functional, Mus musculus; conditions: route oral
# B16 [19] = test: Antitumor activity of 11.9 mg/kg of intravenously administered compound against B16 melanoma BL6 cells implanted into mice, value reported is percent compared to control; type: functional, Mus musculus; conditions: route intravenous
# Mus musculus [20] = test: Antitumor activity of 17.8 mg/kg of intravenously administered compound against B16 melanoma BL6 cells implanted into mice, value reported is percent compared to control; type: functional; conditions: route intravenous
# B16 [21] = test: Antitumor activity of 17.8 mg/kg of perorally administered compound against B16 melanoma BL6 cells implanted into mice, value reported is percent compared to control; type: functional, Mus musculus; conditions: route oral
# Mus musculus [22] = test: Maximum rate of body weight loss after peroral administration of 7.9 mg/kg of compound in mice; <0 indicates no body weight loss; type: functional; conditions: route oral
# Mus musculus [23] = test: Maximum rate of body weight loss after peroral administration of 17.8 mg/kg of compound in mice; type: functional; conditions: route oral
# Mus musculus [24] = test: Effective dose of intravenously administered compound against B16 melanoma BL6 cells implanted into mice; range is 7.9-17.8; type: functional; conditions: B16, iv
# Mus musculus [25] = test: Maximum rate of body weight loss after peroral administration of 11.9 mg/kg of compound in mice; <0 indicates no body weight loss; type: functional; conditions: route oral
# Mus musculus [26] = test: Number of mice died at 7.9 mg/kg of intravenous dose of compound among the total 6 mice tested; type: functional
# Mus musculus [27] = test: Number of mice died at 7.9 mg/kg of peroral dose of compound among the total 6 mice tested; type: functional; conditions: route oral
# Mus musculus [28] = test: Maximum rate of body weight loss after intravenous administration of 17.8 mg/kg of compound in mice; type: functional
# Mus musculus [29] = test: Number of mice died at 11.9 mg/kg of peroral dose, among the total 6 mice tested; type: functional; conditions: route oral
# Mus musculus [30] = test: Number of mice died at 17.8 mg/kg of peroral dose among the total 6 mice tested; type: functional; conditions: route oral
# Mus musculus [31] = test: Number of mice died at 17.8 mg/kg of intravenous dose among the total 6 mice tested; type: functional
structure (smiles),measurement,setting,value
CC(=O)O[C@@]12CO[C@@H]1CC[C@@]1(C)[C@@H]3O[C@H](CN4CCOCC4)O[C@@H]3C3=C(C)[C@@H](OC(=O)[C@H](O)[C@@H](NC(=O)OC(C)(C)C)c4ccc(F)cn4)C[C@@](O)([C@@H](OCc4ccccc4)[C@@H]12)C3(C)C,ED50,B16 [1],3.5 mg/kg
same,ED50,"B16 [2]; B16, po",7.9 mg/kg
CC(=O)O[C@@]12CO[C@@H]1CC[C@@]1(C)[C@@H]3O[C@H](CN4CCOCC4)O[C@@H]3C3=C(C)[C@@H](OC(=O)[C@H](O)[C@@H](NC(=O)OC(C)(C)C)c4cncs4)C[C@@](O)([C@@H](OCc4ccccc4)[C@@H]12)C3(C)C,GI50,PC-6 [3],0.66 ng/mL
same,GI50,PC-12,0.12 ng/mL
same,GI50,P388,0.04 ng/mL
same,ED50,B16 [1],7.9 mg/kg
same,ED50,B16 [2],None
same,GI50,PC-6 [4],0.07 ng/mL
same,GI50,PC-6 [5],20.5 ng/mL
CC(=O)O[C@@]12CO[C@@H]1CC[C@@]1(C)[C@@H]3O[C@H](CN(C)C)O[C@@H]3C3=C(C)[C@@H](OC(=O)[C@H](O)[C@@H](NC(=O)OC(C)(C)C)c4cscn4)C[C@@](O)([C@@H](OCc4ccccc4)[C@@H]12)C3(C)C,GI50,PC-6 [3],1.1 ng/mL
same,GI50,PC-12,0.19 ng/mL
same,GI50,P388,0.06 ng/mL
same,GI50,PC-6 [4],0.35 ng/mL
same,GI50,PC-6 [5],17.3 ng/mL
COc1ccc([C@H](NC(=O)OC(C)(C)C)[C@@H](O)C(=O)O[C@H]2C[C@@]3(O)[C@@H](OCc4ccccc4)[C@H]4[C@@](C)(CC[C@H]5OC[C@]54OC(C)=O)[C@@H]4O[C@H](CN5CCOCC5)O[C@@H]4C(=C2C)C3(C)C)nc1,ED50,B16 [1],5.9 mg/kg
same,ED50,"B16 [2]; B16, po",13.3 mg/kg
CNC[C@@H]1O[C@@H]2C3=C(C)[C@@H](OC(=O)[C@H](O)[C@@H](NC(=O)OC(C)(C)C)c4ccccn4)C[C@@](O)([C@@H](OCc4ccccc4)[C@H]4[C@@](C)(CC[C@H]5OC[C@]54OC(C)=O)[C@@H]2O1)C3(C)C,GI50,PC-12,5.82 ng/mL
same,GI50,P388,0.6 ng/mL
same,GI50,PC-6 [6],43.2 ng/mL
same,GI50,PC-6 [4],0.54 ng/mL
same,GI50,PC-6 [5],265 ng/mL
CC(=O)O[C@H]1C(=O)[C@@]2(C)[C@H]([C@H](OCc3ccccc3)[C@]3(O)C[C@H](OC(=O)[C@H](O)[C@@H](NC(=O)c4ccccc4)c4ccccc4)C(C)=C1C3(C)C)[C@]1(OC(C)=O)CO[C@@H]1C[C@@H]2O,GI50,PC-12,539 ng/mL
same,GI50,P388,2.93 ng/mL
same,GI50,PC-6 [7],455 ng/mL
same,GI50,PC-6 [4],1.27 ng/mL
same,GI50,PC-6 [5],1000 ng/mL
CC(=O)O[C@@]12CO[C@@H]1CC[C@@]1(C)[C@@H]3O[C@H](CNC4CC4)O[C@@H]3C3=C(C)[C@@H](OC(=O)[C@H](O)[C@@H](NC(=O)OC(C)(C)C)c4nccs4)C[C@@](O)([C@@H](OCc4ccccc4)[C@@H]12)C3(C)C,GI50,PC-12,0.12 ng/mL
same,GI50,P388,0.06 ng/mL
same,GI50,PC-6 [6],1.16 ng/mL
same,GI50,PC-6 [4],0.42 ng/mL
same,GI50,PC-6 [5],39.4 ng/mL
CC(=O)O[C@@]12CO[C@@H]1CC[C@@]1(C)[C@@H]3O[C@H](CN(C)C)O[C@@H]3C3=C(C)[C@@H](OC(=O)[C@H](O)[C@@H](NC(=O)OC(C)(C)C)c4ccccn4)C[C@@](O)([C@@H](OCc4ccccc4)[C@@H]12)C3(C)C,Mortality,Mus musculus [8],6
same,Mortality,Mus musculus [9],1
same,IR,Mus musculus [10],72.8%
same,Mortality,Mus musculus [11],0
same,IR,Mus musculus [12],82.3%
same,ED50,Mus musculus [13],17.8 mg/kg
same,BWLmax,Mus musculus [14],<0%
same,BWLmax,Mus musculus [15],1%
same,IR,Mus musculus [16],97.5%
same,BWLmax,Mus musculus [17],13.1%
same,IR,B16 [18],88.8%
same,GI50,PC-12,0.74 ng/mL
same,GI50,P388,0.41 ng/mL
same,IR,B16 [19],95%
same,IR,Mus musculus [20],97.7%
same,IR,B16 [21],97%
same,BWLmax,Mus musculus [22],<0%
same,BWLmax,Mus musculus [23],8.8%
same,ED50,Mus musculus [24],17.8 mg/kg
same,BWLmax,Mus musculus [25],<0%
same,Mortality,Mus musculus [26],0
same,Mortality,Mus musculus [27],0
same,BWLmax,Mus musculus [28],8.6%
same,Mortality,Mus musculus [29],0
same,Mortality,Mus musculus [30],0
same,Mortality,Mus musculus [31],0
same,GI50,PC-6 [6],4.04 ng/mL
same,GI50,PC-6 [4],0.38 ng/mL
same,GI50,PC-6 [5],54.2 ng/mL
CC(=O)O[C@@]12CO[C@@H]1CC[C@@]1(C)[C@@H]3O[C@H](CNC4CC4)O[C@@H]3C3=C(C)[C@@H](OC(=O)[C@H](O)[C@@H](NC(=O)OC(C)(C)C)c4ccccn4)C[C@@](O)([C@@H](OCc4ccccc4)[C@@H]12)C3(C)C,GI50,PC-12,0.3 ng/mL
same,GI50,P388,0.17 ng/mL
same,GI50,PC-6 [6],2.22 ng/mL
same,GI50,PC-6 [4],0.54 ng/mL
same,GI50,PC-6 [5],49.4 ng/mL
CC(=O)O[C@@]12CO[C@@H]1CC[C@@]1(C)[C@@H]3O[C@H](CN(C)C)O[C@@H]3C3=C(C)[C@@H](OC(=O)[C@H](O)[C@@H](NC(=O)OC(C)(C)C)C(C)(C)C)C[C@@](O)([C@@H](OCc4ccccc4)[C@@H]12)C3(C)C,GI50,PC-12,0.5 ng/mL
same,GI50,P388,0.73 ng/mL
same,ED50,B16 [1],11.9 mg/kg
same,ED50,"B16 [2]; B16, po",11.9 mg/kg
same,GI50,PC-6 [6],1.42 ng/mL
same,GI50,PC-6 [4],0.67 ng/mL
same,GI50,PC-6 [5],15.7 ng/mL
CC(=O)O[C@@]12CO[C@@H]1CC[C@@]1(C)[C@@H]3O[C@H](CN(C)C)O[C@@H]3C3=C(C)[C@@H](OC(=O)[C@H](O)[C@@H](NC(=O)OC(C)(C)C)c4cncs4)C[C@@](O)([C@@H](OCc4ccccc4)[C@@H]12)C3(C)C,GI50,PC-6 [3],1.63 ng/mL
same,GI50,PC-12,0.17 ng/mL
same,GI50,P388,0.07 ng/mL
same,GI50,PC-6 [4],0.3 ng/mL
same,GI50,PC-6 [5],23.8 ng/mL
